According to ChEMBL document CHEMBL3864160, “Discovery of fluorobenzimidazole HCV NS5A inhibitors” (Bioorg Med Chem Lett, 2016):

Tests used:
[1] = Cmax in CD1 mouse at 3 mg/kg, po after 0.25 to 24 hrs; format: ADME, organism-based; set-up: dose 3 mg/kg, route oral; settings: in vivo
[2] = AUC in CD1 mouse at 3 mg/kg, po after 0.25 to 24 hrs; format: ADME, organism-based; set-up: time upper 24 hr, dose 3 mg/kg, time lower 0.25 hr, route oral; settings: in vivo
[3] = Plasma clearance in CD1 mouse at 3 mg/kg, iv after 0.1 to 24 hrs; format: ADME, organism-based
[4] = Half life in CD1 mouse at 3 mg/kg, iv after 0.1 to 24 hrs; format: ADME, organism-based; settings: in vivo
[5] = Oral bioavailability in CD1 mouse at 3 mg/kg after 0.25 to 24 hrs; format: ADME, organism-based; settings: in vivo
[6] = Cmax in beagle dog at 2.5 mg/kg, po administered via gavage after 0.25 to 24 hrs; format: ADME, organism-based, Canis lupus familiaris; set-up: dose 2.5 mg/kg, route oral; settings: in vivo
[7] = Half life in CD1 mouse at 30 mg/kg, po after 0.25 to 24 hrs; format: ADME, organism-based; settings: in vivo
[8] = Half life in CD1 mouse at 3 mg/kg, po after 0.25 to 24 hrs; format: ADME, organism-based; settings: in vivo
[9] = AUC in Sprague-Dawley rat at 3 mg/kg, po administered via gavage after 0.25 to 24 hrs; format: ADME, organism-based; set-up: time upper 24 hr, dose 3 mg/kg, time lower 0.25 hr, route oral; settings: in vivo
[10] = AUC in beagle dog at 2.5 mg/kg, po administered via gavage after 0.25 to 24 hrs; format: ADME, organism-based, Canis lupus familiaris; set-up: dose 2.5 mg/kg, time 0.25-24 hr, route oral; settings: in vivo
[11] = system: Hepatitis C virus (isolate H77); assay: Resistance ratio of EC50 for Hepatitis C virus genotype 1a H77 replicon NS5A Y93H mutant to EC50 for Hepatitis C virus genotype 1a H77 replicon NS5A
[12] = Cmax in Sprague-Dawley rat at 3 mg/kg, po administered via gavage after 0.25 to 24 hrs; format: ADME, organism-based; set-up: dose 3 mg/kg, route oral; settings: in vivo
[13] = Cmax in CD1 mouse at 30 mg/kg, po after 0.25 to 24 hrs; format: ADME, organism-based; set-up: dose 30 mg/kg, route oral; settings: in vivo
[14] = Inhibition of Hepatitis C virus genotype 1a H77 replicon NS5A transfected in human HuH7 cells assessed as decrease in replication of viral replicon in presence of 40% human plasma after 4 days by luciferase reporter gene assay; format: cell-based, Hepatitis C virus (isolate H77); settings: Huh-7, Plasma, 96 h
[15] = Inhibition of Hepatitis C virus genotype 1a H77 replicon NS5A Q30R mutant transfected in human HuH7 cells assessed as decrease in replication of viral replicon after 4 days by luciferase reporter gene assay; format: cell-based, Hepatitis C virus (isolate H77); settings: Huh-7, 96 h
[16] = system: Hepatitis C virus (isolate H77); assay: Resistance ratio of EC50 for Hepatitis C virus genotype 1a H77 replicon NS5A Y93C mutant to EC50 for Hepatitis C virus genotype 1a H77 replicon NS5A
[17] = Half life in Sprague-Dawley rat at 3 mg/kg, po administered via gavage after 0.25 to 24 hrs; format: ADME, organism-based; settings: in vivo
[18] = Inhibition of Hepatitis C virus genotype 3a replicon NS5A transfected in human HuH7 cells assessed as decrease in replication of viral replicon after 4 days by luciferase reporter gene assay; format: cell-based, Hepatitis C virus subtype 3a; settings: Huh-7, 96 h
[19] = system: Hepatitis C virus (isolate H77); assay: Resistance ratio of EC50 for Hepatitis C virus genotype 1a H77 replicon NS5A M28T mutant to EC50 for Hepatitis C virus genotype 1a H77 replicon NS5A
[20] = Inhibition of Hepatitis C virus genotype 4a replicon NS5A transfected in human HuH7 cells assessed as decrease in replication of viral replicon after 4 days by luciferase reporter gene assay; format: cell-based, Hepatitis C virus subtype 4a; settings: Huh-7, 96 h
[21] = Inhibition of Hepatitis C virus genotype 6a replicon NS5A transfected in human HuH7 cells assessed as decrease in replication of viral replicon after 4 days by luciferase reporter gene assay; format: cell-based, Hepatitis C virus subtype 6a; settings: Huh-7, 96 h
[22] = Inhibition of Hepatitis C virus genotype 2b replicon NS5A transfected in human HuH7 cells assessed as decrease in replication of viral replicon after 4 days by luciferase reporter gene assay; format: cell-based, Hepatitis C virus subtype 2b; settings: Huh-7, 96 h
[23] = Inhibition of Hepatitis C virus genotype 1b Con1 replicon NS5A transfected in human HuH7 cells assessed as decrease in replication of viral replicon in presence of 40% human plasma after 4 days by luciferase reporter gene assay; format: cell-based, Hepatitis C virus (isolate Con1); settings: Huh-7, Plasma, 96 h
[24] = system: Hepatitis C virus (isolate H77); assay: Resistance ratio of EC50 for Hepatitis C virus genotype 1a H77 replicon NS5A Q30R mutant to EC50 for Hepatitis C virus genotype 1a H77 replicon NS5A
[25] = AUC in CD1 mouse at 30 mg/kg, po after 0.25 to 24 hrs; format: ADME, organism-based; set-up: time lower 0.25 hr, dose 30 mg/kg, time upper 24 hr, route oral; settings: in vivo
[26] = Inhibition of Hepatitis C virus genotype 1b Con1 replicon NS5A transfected in human HuH7 cells assessed as decrease in replication of viral replicon after 4 days by luciferase reporter gene assay; format: cell-based, Hepatitis C virus (isolate Con1); settings: Huh-7, 96 h
[27] = Half life in beagle dog at 2.5 mg/kg, po administered via gavage after 0.25 to 24 hrs; format: ADME, organism-based, Canis lupus familiaris; settings: in vivo
[28] = Inhibition of Hepatitis C virus genotype 2a replicon NS5A transfected in human HuH7 cells assessed as decrease in replication of viral replicon after 4 days by luciferase reporter gene assay; format: cell-based, Hepatitis C virus subtype 2a; settings: Huh-7, 96 h
[29] = Inhibition of Hepatitis C virus genotype 1a H77 replicon NS5A transfected in human HuH7 cells assessed as decrease in replication of viral replicon after 4 days by luciferase reporter gene assay; format: cell-based, Hepatitis C virus (isolate H77); settings: Huh-7, 96 h
[30] = Inhibition of Hepatitis C virus genotype 1a H77 replicon NS5A M28T mutant transfected in human HuH7 cells assessed as decrease in replication of viral replicon after 4 days by luciferase reporter gene assay; format: cell-based, Hepatitis C virus (isolate H77); settings: Huh-7, 96 h
[31] = Cmax in CD1 mouse at 15 mg/kg, po after 0.25 to 24 hrs; format: ADME, organism-based; set-up: dose 15 mg/kg, route oral; settings: in vivo
[32] = Half life in CD1 mouse at 15 mg/kg, po after 0.25 to 24 hrs; format: ADME, organism-based; settings: in vivo
[33] = AUC in CD1 mouse at 15 mg/kg, po after 0.25 to 24 hrs; format: ADME, organism-based; set-up: time lower 0.25 hr, dose 15 mg/kg, time upper 24 hr, route oral; settings: in vivo
[34] = system: Hepatitis C virus (isolate H77); assay: Ratio of EC50 for Hepatitis C virus genotype 1a H77 replicon NS5A in presence of 40% human plasma to EC50 for Hepatitis C virus genotype 1a H77 replicon NS5A in absence of 40% human plasma
[35] = system: Hepatitis C virus (isolate Con1); assay: Ratio of EC50 for Hepatitis C virus genotype 1b Con1 replicon NS5A in presence of 40% human plasma to EC50 for Hepatitis C virus genotype 1b Con1 replicon NS5A in absence of 40% human plasma
[36] = AUC in CD1 mouse at 5 mg/kg, po after 0.25 to 24 hrs; format: ADME, organism-based; set-up: time 0.25-24 hr, dose 5 mg/kg, route oral; settings: in vivo
[37] = Plasma clearance in CD1 mouse at 5 mg/kg, iv after 0.1 to 24 hrs; format: ADME, organism-based
[38] = Half life in CD1 mouse at 5 mg/kg, iv after 0.1 to 24 hrs; format: ADME, organism-based; settings: in vivo
[39] = Half life in CD1 mouse at 5 mg/kg, po after 0.25 to 24 hrs; format: ADME, organism-based; settings: in vivo
[40] = Oral bioavailability in CD1 mouse at 5 mg/kg after 0.25 to 24 hrs; format: ADME, organism-based; settings: in vivo
[41] = Half life in Sprague-Dawley rat at 3 mg/kg, iv administered as bolus dose after 0.1 to 24 hrs; format: ADME, organism-based; settings: in vivo
[42] = Cmax in CD1 mouse at 5 mg/kg, po after 0.25 to 24 hrs; format: ADME, organism-based; set-up: dose 5 mg/kg, route oral; settings: in vivo
[43] = Oral bioavailability in Sprague-Dawley rat at 3 mg/kg administered via gavage after 0.25 to 24 hrs; format: ADME, organism-based; settings: in vivo
[44] = Plasma clearance in Sprague-Dawley rat at 3 mg/kg, iv administered as bolus dose after 0.1 to 24 hrs; format: ADME, organism-based

| SMILES | Cmax [1] | AUC [2] | half-life [8] | AUC [9] | Ratio EC50 [11] | Cmax [12] | EC50 [14] | EC50 [15] | Ratio EC50 [16] | EC50 [18] | Ratio EC50 [19] | EC50 [20] | EC50 [21] | EC50 [22] | EC50 [23] | Ratio EC50 [24] | EC50 [26] | EC50 [28] | EC50 [29] | EC50 [30] | also measured |
| --- | --- | --- | --- | --- | --- | --- | --- | --- | --- | --- | --- | --- | --- | --- | --- | --- | --- | --- | --- | --- | --- |
| COC(=O)N[C@H](C(=O)N1CCC[C@H]1C(=O)Nc1ccc([C@H]2CC[C@@H](c3ccc(NC(=O)[C@@H]4CCCN4C(=O)[C@@H](NC(=O)OC)C(C)C)cc3)N2c2ccc(C(C)(C)C)cc2)cc1)C(C)C | 570 ng/mL | 11000 ng·h/mL | – | – | – | – | – | – | – | – | – | – | – | – | – | – | – | – | – | – | clearance [3]: 1.83 mL/min/kg; half-life [4]: 11 h; bioavailability [5]: 42% |
| COC(=O)N[C@H](C(=O)N1CCC[C@H]1c1nc2cc([C@H]3CC[C@H](c4cc5nc([C@@H]6CCCN6C(=O)[C@@H](NC(=O)OC)C(C)C)[nH]c5cc4F)N3c3cc(F)c(N4CCCCC4)c(F)c3)c(F)cc2[nH]1)C(C)C | 370 ng/mL | 4410 ng·h/mL | 6.1 h | 2880 ng·h/mL | 27 | 190 ng/mL | 96 pM | 8 pM | 4 | 6 pM | 2 | 7 pM | 7 pM | 4 pM | 153 pM | 3 | 7 pM | 12 pM | 3 to 4 pM | – | Cmax [6]: 1380 ng/mL; half-life [7]: 5.5 h; AUC [10]: 17200 ng·h/mL; Cmax [13]: 3390 ng/mL; half-life [17]: 5.8 h; AUC [25]: 48200 ng·h/mL; half-life [27]: 5.5 h |
| COC(=O)N[C@H](C(=O)N1CCC[C@H]1c1nc2cc([C@H]3CC[C@H](c4ccc5[nH]c([C@@H]6CCCN6C(=O)[C@@H](NC(=O)OC)C(C)C)nc5c4)N3c3cc(F)c(N4CCCCC4)c(F)c3)ccc2[nH]1)C(C)C | 220 ng/mL | 1800 ng·h/mL | 3.9 h | 30 ng·h/mL | 163 | 50 ng/mL | 154 pM | 25 pM | 6 | 9 pM | 3 | 5 pM | 7 pM | 7 pM | 261 pM | 8 | 6 pM | 13 pM | 3 to 6 pM | 10 pM | Cmax [6]: 200 ng/mL; Cmax [31]: 930 ng/mL; AUC [10]: 1230 ng·h/mL; half-life [32]: 3.2 h; half-life [27]: 2.8 h; AUC [33]: 9250 ng·h/mL |
| COC(=O)N[C@H](C(=O)N1CCC[C@H]1c1nc2cc([C@H]3CC[C@H](c4cc5nc([C@@H]6CCCN6C(=O)[C@@H](NC(=O)OC)C(C)C)[nH]c5cc4F)N3c3ccc(C(C)(C)C)cc3)c(F)cc2[nH]1)C(C)C | – | – | – | – | 30 | – | 216 pM | 5 pM | 3 | 8 pM | 2 | 8 pM | 15 pM | 9 pM | 96 pM | 3 | 7 pM | 98 pM | 2 to 8 pM | 4 pM | Ratio EC50 [34]: 15 to 30; Ratio EC50 [35]: 15 to 30 |
| COC(=O)N[C@H](C(=O)N1CCC[C@H]1c1nc2cc([C@H]3CC[C@H](c4cc5[nH]c([C@@H]6CCCN6C(=O)[C@@H](NC(=O)OC)C(C)C)nc5cc4F)N3c3ccc(C(C)(C)C)cc3)c(F)cc2[nH]1)C(C)C | 630 ng/mL | 5790 ng·h/mL | 4.4 h | – | – | – | – | – | – | – | – | – | – | – | – | – | – | – | – | – | Cmax [31]: 3180 ng/mL; half-life [32]: 4.8 h; AUC [33]: 36200 ng·h/mL |
| COC(=O)N[C@H](C(=O)N1CCC[C@H]1c1nc2ccc([C@H]3CC[C@H](c4ccc5nc([C@@H]6CCCN6C(=O)[C@@H](NC(=O)OC)C(C)C)[nH]c5c4)N3c3ccc(C(C)(C)C)cc3)cc2[nH]1)C(C)C | – | – | – | 560 ng·h/mL | 239 | 60 ng/mL | 155 pM | 27 pM | 8 | 14 pM | 4 | 6 pM | – | 10 pM | 272 pM | 14 | 14 pM | 155 pM | 2 to 11 pM | 8 pM | AUC [36]: 1390 ng·h/mL; clearance [37]: 6.33 mL/min/kg; Ratio EC50 [34]: 10 to 20; half-life [38]: 2 h; half-life [39]: 2.6 h; bioavailability [40]: 11%; half-life [41]: 4.1 h; Cmax [42]: 270 ng/mL; bioavailability [43]: 20%; clearance [44]: 17.7 mL/min/kg |
